Experimental data from PubChem BioAssay AID248 (DTP/NCI, 2004).
“And” between values parts separate entries of the source, which are not always exact repeats. Equal entries are not always repeated. Toxic doses and inconclusive results are not listed. No stated cut-off is given here; in the data, active means T/C of 150% or more; inactive means T/C below 125%.

Tested on: L1210 leukemia ip in BDF1 mice, survival T/C
Test: NCI In Vivo Anticancer Drug Screen. Data for tumor model L1210 Leukemia (intraperitoneal) in B6D2F1 (BDF1) mice
Conditions: endpoint: mean survival time, higher = longer survival
How it was run: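 Antitumor effect is assessed in tumor-bearing animals. Survival in the compound arm is compared with a vehicle-dosed control arm and expressed as their quotient.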

[1] = dose: 100.0 mg/kg/injection, schedule: Q01DX001 (ip), vehicle: saline with Tween-80
[2] = dose: 200.0 mg/kg/injection, schedule: Q01DX001 (ip), vehicle: saline with Tween-80
[3] = dose: 400.0 mg/kg/injection, schedule: Q01DX001 (ip), vehicle: saline with Tween-80
[4] = dose: 100.0 mg/kg/injection, schedule: Q01DX009 (ip), vehicle: saline with Tween-80
[5] = dose: 100.0 mg/kg/injection, schedule: Q04DX003 (ip), vehicle: saline with Tween-80
[6] = dose: 200.0 mg/kg/injection, schedule: Q01DX009 (ip), vehicle: saline with Tween-80
[7] = dose: 200.0 mg/kg/injection, schedule: Q04DX003 (ip), vehicle: saline with Tween-80
[8] = dose: 400.0 mg/kg/injection, schedule: Q01DX009 (ip), vehicle: saline with Tween-80
[9] = dose: 400.0 mg/kg/injection, schedule: Q04DX003 (ip), vehicle: saline with Tween-80
[10] = dose: 100.0 mg/kg/injection, schedule: Q04DX002 (ip), vehicle: Klucel (hydroxypropylcellulose) (HPC)
[11] = dose: 100.0 mg/kg/injection, schedule: Q01DX001 (ip), vehicle: saline
[12] = dose: 200.0 mg/kg/injection, schedule: Q01DX001 (ip), vehicle: saline
[13] = dose: 400.0 mg/kg/injection, schedule: Q01DX001 (ip), vehicle: saline
[14] = dose: 100.0 mg/kg/injection, schedule: Q04DX002 (ip), vehicle: saline with Tween-80
[15] = dose: 200.0 mg/kg/injection, schedule: Q04DX002 (ip), vehicle: saline with Tween-80
[16] = dose: 400.0 mg/kg/injection, schedule: Q04DX002 (ip), vehicle: saline with Tween-80
[17] = dose: 100.0 mg/kg/injection, schedule: Q04DX003 (ip), vehicle: Klucel (hydroxypropylcellulose) (HPC)
[18] = dose: 200.0 mg/kg/injection, schedule: Q04DX003 (ip), vehicle: Klucel (hydroxypropylcellulose) (HPC)
[19] = dose: 400.0 mg/kg/injection, schedule: Q04DX003 (ip), vehicle: Klucel (hydroxypropylcellulose) (HPC)

Measured: T/C

O=C(O)COc1ccc(Cl)cc1Cc1ccccc1
inactive: [1] 98 % of control | [2] 96 % of control | [3] 117 % of control

O=C1C(=O)N(CN2CCCCC2)c2ccccc21
inactive: [4] 98 % of control | [5] 109 % of control | [6] 113 % of control | [7] 109 % of control | [8] 104 % of control | [9] 108 % of control

O=S1(=O)CC2(N3CCCC3)C3c4ccccc4C(c4ccccc43)C21 (stereo not drawn)
inactive: dose: 25.0 mg/kg/injection, schedule: Q04DX002 (ip), vehicle: Klucel (hydroxypropylcellulose) (HPC) 102 % of control | dose: 50.0 mg/kg/injection, schedule: Q04DX002 (ip), vehicle: Klucel (hydroxypropylcellulose) (HPC) 102 % of control | [10] 117 % of control

O=[N+]([O-])c1ccc2c([N+](=O)[O-])ccc3c2c1CC3
inactive: [4] 94 % of control | [6] 90 % of control | [8] 92 % of control

CNC(=Nc1ccc(NC(=O)c2ccc(C(=O)Nc3ccc(N=C(NC)c4ccccc4)cc3)cc2)cc1)c1ccccc1
inactive: dose: 3.75 mg/kg/injection, schedule: Q01DX Z (ip), vehicle: saline 106 % of control | dose: 7.5 mg/kg/injection, schedule: Q01DX Z (ip), vehicle: saline 100 % of control | dose: 15.0 mg/kg/injection, schedule: Q01DX Z (ip), vehicle: other 91 % of control | dose: 15.0 mg/kg/injection, schedule: Q01DX Z (ip), vehicle: saline 105 % of control

Cc1ncc(Br)c(C(=O)O)n1
inactive: dose: 50.0 mg/kg/injection, schedule: Q01DX001 (ip), vehicle: saline 101 % of control | [11] 98 % of control | dose: 100.0 mg/kg/injection, schedule: Q01DX009 (ip), vehicle: Klucel (hydroxypropylcellulose) (HPC) 106 % of control | [12] 95 % of control | dose: 200.0 mg/kg/injection, schedule: Q01DX009 (ip), vehicle: Klucel (hydroxypropylcellulose) (HPC) 113 % of control | [13] 90 % of control | dose: 400.0 mg/kg/injection, schedule: Q01DX009 (ip), vehicle: Klucel (hydroxypropylcellulose) (HPC) 110 % of control

C/C=C/C[P+](CC)(c1ccccc1)c1ccccc1
inactive: dose: 3.13 mg/kg/injection, schedule: Q01DX009 (ip), vehicle: saline 89 % of control

CCOC(=O)C1CCCCC1O (stereo not drawn)
inactive: dose: 50.0 mg/kg/injection, schedule: Q01DX009 (ip), vehicle: saline with Tween-80 103 % of control | [4] 95 % of control | [14] 97 % of control | [6] 103 % of control | [15] 97 % of control | [16] 104 % of control

CN(C)S(=O)(=O)c1ccc(NC(=O)OC(c2ccccc2)(c2ccccc2)c2ccccc2)cc1
inactive: [11] 96 % of control | [12] 92 % of control | [13] 96 % of control

Cc1cccc(NC(=O)Oc2cc(C)c(Cl)cc2C(C)C)c1
inactive: [1] 103 % of control | [4] 95 % of control and 103 % of control | [14] 105 % of control and 108 % of control | [5] 90 % of control | [2] 104 % of control | [6] 98 % of control and 103 % of control | [15] 97 % of control and 87 % of control | [7] 98 % of control | [3] 106 % of control | [8] 95 % of control and 98 % of control | [16] 94 % of control and 100 % of control | [9] 100 % of control

Clc1ccc(-c2nn[nH]n2)cc1
inactive: [10] 96 % of control | dose: 200.0 mg/kg/injection, schedule: Q04DX002 (ip), vehicle: Klucel (hydroxypropylcellulose) (HPC) 93 % of control

Cc1ccc(Oc2cccc(C(=O)O)c2)cc1
inactive: [17] 107 % of control | [18] 96 % of control | [19] 118 % of control

c1cc(B2OCCNCCO2)ccc1B1OCCNCCO1
inactive: [17] 103 % of control | [18] 98 % of control | [19] 104 % of control

Clc1cccc2c1Cc1c(Cl)cccc1C2
inactive: [1] 97 % of control | [2] 94 % of control | [3] 97 % of control

CCCCCCCCCCCc1cc(=O)n(-c2cc(Cl)ccc2Cl)n1C
inactive: [5] 98 % of control

CCCCSCCOC(=O)C1C2CCC(O2)C1C(=O)O (stereo not drawn)
inactive: dose: 12.5 mg/kg/injection, schedule: Q04DX003 (ip), vehicle: Klucel (hydroxypropylcellulose) (HPC) 95 % of control | dose: 25.0 mg/kg/injection, schedule: Q04DX003 (ip), vehicle: Klucel (hydroxypropylcellulose) (HPC) 96 % of control

COc1ccc(S(=O)(=O)N/N=C/C(=O)O)cc1
inactive: dose: 6.25 mg/kg/injection, schedule: Q01DX009 (ip), vehicle: saline with Tween-80 109 % of control | dose: 12.5 mg/kg/injection, schedule: Q01DX009 (ip), vehicle: saline with Tween-80 117 % of control

COc1ccccc1NC(=O)CC(C)=O
inactive: dose: 50.0 mg/kg/injection, schedule: Q01DX001 (ip), vehicle: Klucel (hydroxypropylcellulose) (HPC) 100 % of control | dose: 100.0 mg/kg/injection, schedule: Q01DX001 (ip), vehicle: Klucel (hydroxypropylcellulose) (HPC) 100 % of control | [4] 103 % of control | dose: 200.0 mg/kg/injection, schedule: Q01DX001 (ip), vehicle: Klucel (hydroxypropylcellulose) (HPC) 106 % of control | [6] 95 % of control | [8] 97 % of control

CCc1[nH]c(=S)ncc1-c1ccc([N+](=O)[O-])cc1O
inactive: [17] 93 % of control | [18] 93 % of control | [19] 106 % of control
